Key:
[1] = ambient temperature and humidity
[2] = Storage stability of Formula (I) Form C (long-term and accelerated); format: physicochemical; conditions: for Chemical Purity Assay: anhydrous; for Crystallinity: to Form C
Description: Formula (I) Form C was evaluated for stability (Table 16 and Table 17). The Form C was stored in polyethylene double bags sealed with Nylon lock ties, and inside a capped polyethylene container at Wilmington PharmaTech Company. The storage conditions were long-term condition 25° C./60% RH, or accelerated condition 40° C./75% RH. The samples were analyzed for appearance, assay, related substances, chiral purity, water content and crystallinity.

[3] = Dynamic vapor sorption (DVS); format: physicochemical
Description: Approximately 10-20 mg of sample was placed into a mesh vapor sorption balance pan and loaded into a DVS Intrinsic or Advantage dynamic vapor sorption balance by Surface Measurement Systems. The sample was subjected to a ramping profile from 40-90% relative humidity (RH) at 10% increments, maintaining the sample at each step until a stable weight had been achieved (dm/dt 0.004%, minimum step length 30 minutes, maximum step length 200 or 500 minutes) at 25° C. After completion of the sorption cycle, the sample was dried using the same procedure to 0% RH and then a second sorption cycle back to 40% RH. Two cycles were performed. The weight change during the sorption/desorption cycles were plotted, allowing for the hygroscopic nature of the sample to be determined.

[4] = Competitive slurrying of free base Forms A, B and C; format: physicochemical
Description: Competitive slurries were carried out at 20° C. and 60° C. using the following procedure: 1.5 mL slurries of Formula (I) were prepared in t-BME, acetone, ethanol, and 2-Me THF at 60° C. in 2 mL screw cap vials. The slurries were syringe filtered (0.45 μm PTFE filter) after ca. 1 hour to obtain saturated Formula (I) solutions. Ca. 0.6 mL of saturated solution was added to ca. 10 mg of free base Forms A, B, and C to form slurries. The experiments were agitated at either ambient temperature (ca. 20° C.) and 60° C. for 48 h.
After 48 h the slurries were isolated by centrifugation (nylon, 0.22 μm) and analyzed by XRPD. Where mixtures were observed competitive slurrying was continued until mixtures were no longer observed (21 days).

[5] = Seven day stability of Formula (I) Form C; format: physicochemical
CaMKII = CaMKII inhibitor, US publication no. 20220098207; cited from earlier work

## COc1ccnc(-c2cnc3ccc(-c4ccc(F)c(O[C@@H](C)Cn5cnnn5)c4)nn23)c1C#N.O=C(O)C(O)C(O)C(=O)O
[1]
  form conversion on standing: converted to L-tartaric acid co-crystal Form 2

## COc1ccnc(-c2cnc3ccc(-c4ccc(F)c(O[C@@H](C)Cn5cnnn5)c4)nn23)c1C#N [Formula (I) Form C, (S)-2-(6-(3-((1-(1H-tetrazol-1-yl)propan-2-yl)oxy)-4-fluorophenyl)imidazo[1,2-b]pyridazin-3-yl)-4-methoxynicotinonitrile]
[2]; 25° C./60% RH, 0 months
  Chiral Purity: >99.9 area %
  Description: Off-white
  Related Substances: Impurity #1: 0.05%
  Related Substances: Impurity #2: 0.18%
  Total Impurities: 0.23%
  Water: 0.29%
  Chemical Purity Assay: 100.1 wt %
  Crystallinity: Conforms
[2]; 25° C./60% RH, 12 months
  Chiral Purity: >99.9 area %
  Description: Off-white
  Related Substances: Impurity #1: 0.05%
  Related Substances: Impurity #2: 0.18%
  Total Impurities: 0.23%
  Water: 0.32%
  Chemical Purity Assay: 99.4 wt %
  Crystallinity: Conforms
[2]; 25° C./60% RH, 24 months
  Chiral Purity: >99.9 area %
  Description: Off-white
  Related Substances: Impurity #1: 0.05%
  Related Substances: Impurity #2: 0.18%
  Total Impurities: 0.23%
  Water: 0.35%
  Chemical Purity Assay: 99.4 wt %
  Crystallinity: Conforms
[2]; 40° C./75% RH, 0 months
  B. Unidentified Impurities (RRT: %), first listed: 0.07%
  B. Unidentified Impurities (RRT: %), second listed: 0.05%
  Chiral Purity: >99.9 area %
  Description: Off-white
  Related Substances: Impurity #1: 0.09%
  Related Substances: Impurity #2: 0.19%
  Related Substances: Impurity #3: <0.05%
  Total Impurities: 0.40%
  Water: 0.36%
  Chemical Purity Assay: 99.6 wt %
  Crystallinity: Conforms
[2]; 40° C./75% RH, 6 months
  B. Unidentified Impurities (RRT: %), first listed: 0.06%
  B. Unidentified Impurities (RRT: %), second listed: 0.06%
  Chiral Purity: >99.9 area %
  Description: Off-white
  Related Substances: Impurity #1: 0.08%
  Related Substances: Impurity #2: 0.19%
  Related Substances: Impurity #3: 0.05%
  Total Impurities: 0.44%
  Water: 0.15%
  Chemical Purity Assay: 99.3 wt %
  Crystallinity: Conforms
[2]; 40° C./75% RH, 12 months
  B. Unidentified Impurities (RRT: %), first listed: 0.06%
  Chiral Purity: >99.9 area %
  Description: Off-white
  Related Substances: Impurity #1: 0.08%
  Related Substances: Impurity #2: 0.19%
  Related Substances: Impurity #3: <0.05%
  Total Impurities: 0.33%
  Water: 0.49%
  Chemical Purity Assay: 99.6 wt %
  Crystallinity: Conforms
[3]; 25° C.
  hygroscopicity by DVS: slightly hygroscopic
[3]; after DVS
  Post-DVS XRPD analysis: Form C was retained
[3]; at 80% RH
  uptake (DVS): 0.3%
[4]; 60° C., 2-Me THF
  Time until Form C was only detected polymorph: 2 days
[4]; 60° C., Ethanol
  Time until Form C was only detected polymorph: 2 days
[4]; 60° C., acetone
  Time until Form C was only detected polymorph: 2 days
[4]; 60° C., t-BME
  Time until Form C was only detected polymorph: 15 days
[4]; all solvents tested, 20° C. and 60° C.
  relative stability of free base polymorphs: most stable polymorph
[4]; ambient (ca. 20° C.), 2-Me THF
  Time until Form C was only detected polymorph: 9 days
[4]; ambient (ca. 20° C.), Ethanol
  Time until Form C was only detected polymorph: 8 days
[4]; ambient (ca. 20° C.), acetone
  Time until Form C was only detected polymorph: 2 days
[4]; ambient (ca. 20° C.), t-BME
  Time until Form C was only detected polymorph: 21 days
[5]; 7 day, 25° C./60% RH
  HPLC Purity: 99.0 % area
  XRPD Analysis: Form C
[5]; 7 day, 40° C./75% RH
  HPLC Purity: 99.0 % area
  XRPD Analysis: Form C
[5]; 7 day, 80° C.
  HPLC Purity: 98.9 % area
  XRPD Analysis: Form C
[5]; 7 day, all conditions
  HPLC analysis, change in purity after 7 day stability: no loss in purity
  XRPD analysis after 7 day stability: retained
[5]; before storage
  Input Purity: 98.8 % area

## COc1ccnc(-c2cnc3ccc(-c4ccc(F)c(O[C@@H](C)Cn5cnnn5)c4)nn23)c1C#N [Example 321, (S)-2-(6-(3-((1-(1H-tetrazol-1-yl)propan-2-yl)oxy)-4-fluorophenyl)imidazo[1,2-b]pyridazin-3-yl)-4-methoxynicotinonitrile]
CaMKII
  IC50: < 10 nM
